Reference: US9732072B2, “PRMT5 inhibitors and uses thereof” (Epizyme, Inc., priority 2012, dated 2017)

Columns and labels:
PRMT5/MEP50 = PRMT5/MEP50 (Homo sapiens (Human), UniProt O14744); assay: PRMT5 Biochemical Assay (PRMT5/MEP50 enzyme assay on peptide substrate, 3H-SAM Flashplate); settings: PRMT5/MEP50 4 nM, 3H-SAM 75 nM, peptide 40 nM
Text: S-adenosylmethionine (SAM), S-adenosylhomocysteine (SAH), bicine, KCl, Tween20, dimethylsulfoxide (DMSO), bovine skin gelatin (BSG), and Tris(2-carboxyethyl)phosphine hydrochloride solution (TCEP) were purchased from Sigma-Aldrich at the highest level of purity possible. ^3H-SAM was purchase from American Radiolabeled Chemicals with a specific activity of 80 Ci/mmol. 384-well streptavidin Flashplates were purchased from PerkinElmer.
Peptide representative of human histone H4 residues 1-15 was synthesized with a C-terminal linker-affinity tag motif and a C-terminal amide cap by 21st Century Biochemicals. The peptide was high high-performance liquid chromatography (HPLC) purified to greater than 95% purity and confirmed by liquid chromatography mass spectrometry (LC-MS). The sequence was Ac-[…][K-Biot]-amide (SEQ ID NO.:3).
Full-length human PRMT5 (NM_006109.3) transcript variant 1 clone was amplified from a fetal brain cDNA library, incorporating flanking 5′ sequence encoding a FLAG tag ([…]) (SEQ ID NO.:4) fused directly to Ala 2 of PRMT5. Full-length human MEP50 (NM_024102) clone was amplified from a human testis cDNA library incorporating a 5′ sequence encoding a 6-histidine tag (MHHHHHH) (SEQ ID NO.:5) fused directly to Arg 2 of MEP50. The amplified genes were sublconed into pENTR/D/TEV (Life Technologies) and subsequently transferred by Gateway™ attL×attR recombination to pDEST8 baculvirus expression vector (Life Technologies).
Recombinant baculovirus and Baculovirus-Infected Insect Cells (BIIC) were generated according to Bac-to-Bac kit instructions (Life Technologies) and Wasilko, 2006, respectively. Protein over-expression was accomplished by infecting exponentially growing Spodoptera frugiperda (SF9) cell culture at 1.2×10^6 cell/ml with a 5000 fold dilution of BIIC stock. Infections were carried out at 27° C. for 72 hours, harvested by centrifugation, and stored at −80° C. for purification.
Flag-PRMT5/6His-MeP50 was eluted with 300 mM Imidazole in the same buffer. The purity of recovered protein was 87%. Reference: Wasilko, D. J. and S. E. Lee: “TIPS: titerless infected-cells preservation and scale-up” Bioprocess J., 5 (2006), pp. 29-32.
General Procedure for PRMT5/MEP50 Enzyme Assays on Peptide Substrates.
The assays were all performed in a buffer consisting of 20 mM Bicine (pH=7.6), 1 mM TCEP, 0.005% BSG, and 0.002% Tween20, prepared on the day of use. Compounds in 100% DMSO (1 ul) were spotted into a polypropylene 384-well V-bottom plates (Greiner) using a Platemate Plus outfitted with a 384-channel head (Thermo Scientific). DMSO (1 ul) was added to Columns 11, 12, 23, 24, rows A-H for the maximum signal control and 1 ul of SAH, a known product and inhibitor of PRMT5/MEP50, was added to columns 11, 12, 23, 24, rows I-P for the minimum signal control. A cocktail (40 ul) containing the PRMT5/MEP50 enzyme and the peptide was added by Multidrop Combi (Thermo-Fisher). The compounds were allowed to incubate with PRMT5/MEP50 for 30 min at 25 degrees Celsius, then a cocktail (10 ul) containing ^3H-SAM was added to initiate the reaction (final volume=51 ul). The final concentrations of the components were as follows: PRMT5/MEP50 was 4 nM, ^3H-SAM was 75 nM, peptide was 40 nM, SAH in the minimum signal control wells was 100 uM, and the DMSO concentration was 1%. The assays were stopped by the addition of non-radioactive SAM (10 ul) to a final concentration of 600 uM, which dilutes the ^3H-SAM to a level where its incorporation into the peptide substrate is no longer detectable. 50 ul of the reaction in the 384-well polypropylene plate was then transferred to a 384-well Flashplate and the biotinylated peptides were allowed to bind to the streptavidin surface for at least 1 hour before being washed three times with 0.1% Tween20 in a Biotek ELx405 plate washer. […]

[1] = test system: Symmetric Di-Methyl Arginine in Z-138 cells; assay: Z-138 Methylation Assay (In Cell Western for symmetric di-methyl arginine); type: cell-based; settings: Homo sapiens, 96 hours incubation, read-out: ICW EC50
Text: [formula] Where top and bottom are the normally allowed to float, but may be fixed at 100 or 0 respectively in a 3-parameter fit. The Hill Coefficient normally allowed to float but may also be fixed at 1 in a 3-parameter fit. Y is the % inhibition and X is the compound concentration. Z-138 Methylation Assay
Z-138 suspension cells were purchased from ATCC (American Type Culture Collection, Manassas, Va.). RPMI/Glutamax medium, penicillin-streptomycin, heat inactivated fetal bovine serum, and D-PBS were purchased from Life Technologies, Grand Island, N.Y., USA. Odyssey blocking buffer, 800CW goat anti-rabbit IgG (H+L) antibody, and Licor Odyssey infrared scanner were purchased from Licor Biosciences, Lincoln, Nebr., USA. Symmetric di-methyl arginine antibody was purchased from EMD Millipore, Billerica, Mass., USA. […]
First, the ratio for each well was determined by:
Each plate included fourteen control wells of DMSO only treatment (minimum inhibition) as well as fourteen control wells for maximum inhibition treated with 3 μM of a reference compound (Background wells). The average of the ratio values for each control type was calculated and used to determine the percent inhibition for each test well in the plate. […] Percent inhibition was determined and IC50 curves were generated using triplicate wells per concentration of compound. […]

Z-138 cell line = assay: Z-138 Proliferation Assay (Cell Titer Glo); type: cell-based; settings: Homo sapiens, 120 h; Z-138 cells, 5 days, top concentration 20 μM
Text: [formula] Z-138 Proliferation Assay
Z-138 suspension cells were purchased from ATCC (American Type Culture Collection, Manassas, Va.). RPMI/Glutamax medium, penicillin-streptomycin, heat inactivated fetal bovine serum were purchased from Life Technologies, Grand Island, N.Y., USA. V-bottom polypropylene 384-well plates were purchased from Greiner Bio-One, Monroe, N.C., USA. Cell culture 384-well white opaque plates were purchased from Perkin Elmer, Waltham, Mass., USA. Cell-Titer Glo® was purchased from Promega Corporation, Madison, Wis., USA. SpectraMax M5 plate reader was purchased from Molecular Devices LLC, Sunnyvale, Calif., USA. […]
For the assessment of the effect of compounds on the proliferation of the Z-138 cell line, exponentially growing cells were plated in 384-well white opaque plates at a density of 10,000 cells/ml in a final volume of 50 μl of assay medium. […] Cell viability was measured by quantitation of ATP present in the cell cultures, adding 35 μl of Cell Titer Glo® reagent to the cell plates. Luminescence was read in the SpectraMax M5 microplate reader. The concentration of compound inhibiting cell viability by 50% was determined using a 4-parametric fit of the normalized dose response curves.

PRMT5/MEP50, sequence (O14744 other isoform, or with tags, fused parts or gaps): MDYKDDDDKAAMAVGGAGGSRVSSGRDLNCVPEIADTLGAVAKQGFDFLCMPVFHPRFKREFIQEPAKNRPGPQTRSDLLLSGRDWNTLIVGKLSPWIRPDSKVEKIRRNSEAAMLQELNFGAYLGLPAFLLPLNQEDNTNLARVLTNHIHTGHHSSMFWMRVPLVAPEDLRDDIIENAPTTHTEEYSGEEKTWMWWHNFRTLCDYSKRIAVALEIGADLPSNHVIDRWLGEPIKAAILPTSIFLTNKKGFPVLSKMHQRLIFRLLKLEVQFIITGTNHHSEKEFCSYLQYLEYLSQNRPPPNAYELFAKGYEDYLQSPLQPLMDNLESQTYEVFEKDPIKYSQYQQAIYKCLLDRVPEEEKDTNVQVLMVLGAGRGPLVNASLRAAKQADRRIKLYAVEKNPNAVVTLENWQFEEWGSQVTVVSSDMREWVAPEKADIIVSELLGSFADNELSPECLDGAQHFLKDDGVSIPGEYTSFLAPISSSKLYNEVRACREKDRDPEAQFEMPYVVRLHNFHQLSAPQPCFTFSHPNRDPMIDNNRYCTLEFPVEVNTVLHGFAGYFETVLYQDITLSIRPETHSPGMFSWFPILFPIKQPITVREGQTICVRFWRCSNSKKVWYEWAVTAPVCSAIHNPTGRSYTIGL
PRMT5/MEP50, sequence (Q9BQA1 other isoform, or with tags, fused parts or gaps partner): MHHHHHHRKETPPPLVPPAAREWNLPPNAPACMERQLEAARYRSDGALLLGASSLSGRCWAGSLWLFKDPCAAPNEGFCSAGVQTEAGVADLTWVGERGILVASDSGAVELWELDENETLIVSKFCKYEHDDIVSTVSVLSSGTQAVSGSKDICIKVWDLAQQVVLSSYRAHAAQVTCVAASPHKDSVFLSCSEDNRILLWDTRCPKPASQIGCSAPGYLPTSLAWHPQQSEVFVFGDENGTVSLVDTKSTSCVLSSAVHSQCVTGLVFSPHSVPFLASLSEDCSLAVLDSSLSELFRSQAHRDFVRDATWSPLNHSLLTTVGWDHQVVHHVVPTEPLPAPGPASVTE

| SMILES | IC50 (PRMT5/MEP50) [µM] | EC50 [1] [µM] | EC50 (Z-138 cell line) [µM] |
| --- | --- | --- | --- |
| Cn1ncc2ccc(OCC(=O)NC[C@@H](O)CN3Cc4ccccc4C3)cc21 [Compound 25] | 10 to 50 |  |  |
| CN(C)S(=O)(=O)c1ccccc1OCC(=O)NC[C@H](O)CN1Cc2ccccc2C1 [Compound 23] | < 0.1 |  |  |
| CN1CCOc2cccc(OCC(=O)NC[C@@H](O)CN3Cc4ccccc4C3)c21 [Compound 22] | 0.101 to 1 |  |  |
| Cn1ncc2ccc(OCC(=O)NC[C@H](O)CN3Cc4ccccc4C3)cc21 [Compound 27] | 0.101 to 1 |  |  |
| C[C@H](Oc1cccc2cccnc12)C(=O)NC[C@@H](O)CN1Cc2ccccc2C1 [Compound 6] | > 10 |  |  |
| CN(C)S(=O)(=O)c1ccccc1OCC(=O)NC[C@@H](O)CN1Cc2ccccc2C1 [Compound 21] | 0.101 to 1 |  |  |
| C[C@@H](Oc1cccc2cccnc12)C(=O)NC[C@@H](O)CN1Cc2ccccc2C1 [Compound 3, (R)—N—((R)-2-hydroxy-3-(isoindolin-2-yl)propyl)-2-(quinolin-8-yloxy)propanamide] | 1 to 10 |  |  |
| CN1CCOc2cccc(OCC(=O)NC[C@H](O)CN3Cc4ccccc4C3)c21 [Compound 26] | 0.101 to 1 |  |  |
| O=C(NC[C@H](O)CN1Cc2ccccc2C1)c1ccnc(NC2CCOCC2)c1 [Compound 30] | < 0.1 |  |  |
| O=C(NCC(O)CN1Cc2ccccc2C1)c1cccc(NC2CCOCC2)c1 (stereo not shown) [Compound 8] |  | 0.101 to 1 |  |
| Cn1cnc2ccc(-c3cccc(OC[C@@H](O)CN4Cc5ccccc5C4)c3)cc21 [Compound 14] | 10 to 50 |  |  |
| Cn1cnc2ccc(-c3cccc(OC[C@H](O)CN4Cc5ccccc5C4)c3)cc21 [Compound 17, (R)-1-(isoindolin-2-yl)-3-(3-(1-methyl-1H-benzo[d]imidazol-6-yl)phenoxy)propan-2-ol] | 1 to 10 |  |  |
| CN1CCOc2cccc(OCC(=O)NCC(O)CN3Cc4ccccc4C3)c21 (stereo not shown) [Compound 10, N-(2-hydroxy-3-(isoindolin-2-yl)propyl)-2-((4-methyl-3,4-dihydro-2H-benzo[b][1,4]oxazin-5-yl)oxy)acetamide] | 0.101 to 1 | 0.101 to 1 | > 20 |
| C[C@H](Oc1cccc2cccnc12)C(=O)NC[C@H](O)CN1Cc2ccccc2C1 [Compound 1] | 1 to 10 |  |  |
